Results published in PubChem BioAssay AID328 (DTP/NCI, 2004).
Several values for one entry are separate records, joined by “and”; a condition that tells them apart may be missing. Equal values may be shown once. Toxic doses and inconclusive results are not listed.

Tested on: BDF1 mice, P388 leukemia ip, median survival T/C
Assay: NCI In Vivo Anticancer Drug Screen. Data for tumor model P388 Leukemia (intraperitoneal) in B6D2F1 (BDF1) mice
Conditions: endpoint: median survival time, higher = longer survival
How it was run: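 Compound-treated tumour-bearing mice were compared with vehicle-treated controls. Survival was recorded, and the value is the treated-group measurement divided by the control-group measurement (T/C).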

[1] = dose: 12.5 mg/kg/injection, schedule: Q01DX009 (ip), vehicle: saline with Tween-80
[2] = dose: 25.0 mg/kg/injection, schedule: Q01DX009 (ip), vehicle: saline with Tween-80
[3] = dose: 50.0 mg/kg/injection, schedule: Q01DX009 (ip), vehicle: saline with Tween-80
[4] = dose: 100.0 mg/kg/injection, schedule: Q04DX003 (ip), vehicle: saline with Tween-80
[5] = dose: 200.0 mg/kg/injection, schedule: Q04DX003 (ip), vehicle: saline with Tween-80
[6] = dose: 400.0 mg/kg/injection, schedule: Q04DX003 (ip), vehicle: saline with Tween-80
[7] = dose: 5.0 mg/kg/injection, schedule: Q01DX009 (ip), vehicle: saline with Tween-80
[8] = dose: 25.0 mg/kg/injection, schedule: Q04DX003 (ip), vehicle: saline with Tween-80
[9] = dose: 50.0 mg/kg/injection, schedule: Q04DX003 (ip), vehicle: saline with Tween-80
[10] = dose: 100.0 mg/kg/injection, schedule: Q01DX009 (ip), vehicle: saline with Tween-80

In the case of `C=CC(C)(O)/C=C/C=C(\C)C(CC1OC1(C)C)OC(=O)/C(C)=C\C` (centres undefined), the T/C (dose: 0.78 mg/kg/injection, schedule: Q01DX009 (ip), vehicle: saline) is reported as 106 % of control, the T/C (dose: 1.56 mg/kg/injection, schedule: Q01DX009 (ip), vehicle: saline) is reported as 95 % of control and the T/C (dose: 3.13 mg/kg/injection, schedule: Q01DX009 (ip), vehicle: saline) is reported as 95 % of control. For the same compound, the T/C (dose: 6.25 mg/kg/injection, schedule: Q01DX009 (ip), vehicle: saline) was 113 % of control.

`NC(=S)N/N=C/c1ccc(-c2ccccc2)cc1` was tested, and the T/C [1] was 90 % of control, the T/C [2] was 109 % of control and the T/C [3] was 86 % of control.

For `COC(=O)C1C2(C)CCc3cc(OC)ccc3C2=CC(=O)C1(C)C(=O)OC` (centres undefined), the T/C (dose: 50.0 mg/kg/injection, schedule: Q04DX003 (sc), vehicle: steriod suspending solution) was 100 % of control and the T/C (dose: 100.0 mg/kg/injection, schedule: Q04DX003 (sc), vehicle: steriod suspending solution) was 90 % of control.

With `COC1C(C)OC(OC2CC(C)(O)Cc3cc4c(c(O)c32)C(=O)c2c(O)cc3c(c2C4=O)OC2OC3(C)C(O)C(N(C)C)C2O)C(OC)C1(C)OC` (centres undefined) the T/C (dose: 1.25 mg/kg/injection, schedule: Q01DX009 (ip), vehicle: other) was 122 % of control, the T/C (dose: 4.32 mg/kg/injection, schedule: Q04DX003 (ip), vehicle: water) was 169 % of control and the T/C (dose: 5.0 mg/kg/injection, schedule: Q01DX009 (ip), vehicle: other) was 154 % of control. The T/C (dose: 7.2 mg/kg/injection, schedule: Q04DX003 (ip), vehicle: water) was 183 % of control, the T/C (dose: 10.0 mg/kg/injection, schedule: Q01DX009 (ip), vehicle: other) was 151 % of control and the T/C (dose: 20.0 mg/kg/injection, schedule: Q04DX003 (ip), vehicle: water) was 111 % of control.

`NC(=S)c1ccc(N)nc1` was tested, and the T/C [4] was 103 % of control, the T/C [5] was 110 % of control and the T/C [6] was 110 % of control.

In the case of `CCOC(=O)C(C1=NC(C)(C)CC(C)O1)C1CCCCC1` (centres undefined), the T/C (dose: 50.0 mg/kg/injection, schedule: Q01DX001 (ip), vehicle: saline sonified) is reported as 120 % of control, the T/C (dose: 100.0 mg/kg/injection, schedule: Q01DX001 (ip), vehicle: saline sonified) is reported as 110 % of control and the T/C (dose: 200.0 mg/kg/injection, schedule: Q01DX001 (ip), vehicle: saline sonified) is reported as 105 % of control.

For `OC(c1ccc(Cl)cc1)(c1ccc(Cl)cc1)C(F)(F)F`, the T/C (dose: 100.0 mg/kg/injection, schedule: Q01DX009 (sc), vehicle: olive oil, sesame oil, peanut oil) was 96 % of control, the T/C (dose: 100.0 mg/kg/injection, schedule: Q04DX003 (sc), vehicle: olive oil, sesame oil, peanut oil) was 109 % of control and the T/C (dose: 200.0 mg/kg/injection, schedule: Q04DX003 (sc), vehicle: olive oil, sesame oil, peanut oil) was 100 % of control. For the same compound, the T/C (dose: 400.0 mg/kg/injection, schedule: Q04DX003 (sc), vehicle: olive oil, sesame oil, peanut oil) was 95 % of control.

With `Clc1ccc(CBr)c2ccccc12` the T/C [1] was 108 % of control, the T/C [2] was 106 % of control and the T/C [3] was 110 % of control.

With `O=C(O)c1c(C(=O)O)c(C(=O)O)c(C(=O)O)c(C(=O)O)c1C(=O)O` the T/C (dose: 20.0 mg/kg/injection, schedule: Q01DX009 (ip), vehicle: saline) was 107 % of control, the T/C (dose: 40.0 mg/kg/injection, schedule: Q01DX009 (ip), vehicle: saline) was 117 % of control and the T/C (dose: 80.0 mg/kg/injection, schedule: Q01DX009 (ip), vehicle: saline) was 98 % of control.

In the case of `CC1=CC(C(O)CC(C)C)C(C)(Cc2ccc(C)cn2)NC1c1ccccc1` (centres undefined), the T/C (dose: 6.25 mg/kg/injection, schedule: Q01DX009 (ip), vehicle: saline with Tween-80) is reported as 107 % of control, the T/C [1] is reported as 102 % of control and the T/C [2] is reported as 103 % of control.

For `Cc1cnc(C#N)c(-n2ccnc2)n1`, the T/C (dose: 12.5 mg/kg/injection, schedule: Q01DX009 (ip), vehicle: water) was 92 % of control, the T/C (dose: 25.0 mg/kg/injection, schedule: Q01DX009 (ip), vehicle: water) was 100 % of control and the T/C (dose: 50.0 mg/kg/injection, schedule: Q01DX009 (ip), vehicle: water) was 95 % of control. For the same compound, the T/C (dose: 100.0 mg/kg/injection, schedule: Q01DX009 (ip), vehicle: water) was 100 % of control and the T/C (dose: 200.0 mg/kg/injection, schedule: Q01DX009 (ip), vehicle: water) was 101 % of control.

For `CC(=O)c1cccc([N+](=O)[O-])c1`, the T/C (dose: 100.0 mg/kg/injection, schedule: Q04DX003 (ip), vehicle: other) was 100 % of control, the T/C (dose: 200.0 mg/kg/injection, schedule: Q04DX003 (ip), vehicle: other) was 104 % of control and the T/C (dose: 400.0 mg/kg/injection, schedule: Q04DX003 (ip), vehicle: other) was 90 % of control.

`Cc1cccc(NC(=O)N(CCCl)N=O)c1` was tested, and the T/C (dose: 0.4 mg/kg/injection, schedule: Q01DX009 (ip), vehicle: saline) was 157 % of control, the T/C (dose: 38.0 micrograms/kg/injection, schedule: Q04DX003 (ip), vehicle: saline) was 100 % of control and the T/C (dose: 75.0 micrograms/kg/injection, schedule: Q04DX003 (ip), vehicle: saline) was 109 % of control. The T/C (dose: 150.0 micrograms/kg/injection, schedule: Q04DX003 (ip), vehicle: saline) was 104 % of control and the T/C (dose: 300.0 micrograms/kg/injection, schedule: Q04DX003 (ip), vehicle: saline) was 109 % of control.

In the case of `COC(=O)c1ccccc1NC(=O)NCCBr`, the T/C (dose: 100.0 mg/kg/injection, schedule: Q04DX003 (ip), vehicle: Klucel (hydroxypropylcellulose) (HPC)) is reported as 90 % of control, the T/C (dose: 200.0 mg/kg/injection, schedule: Q04DX003 (ip), vehicle: Klucel (hydroxypropylcellulose) (HPC)) is reported as 100 % of control and the T/C (dose: 400.0 mg/kg/injection, schedule: Q04DX003 (ip), vehicle: Klucel (hydroxypropylcellulose) (HPC)) is reported as 104 % of control.

In the case of `O=C(Nc1ccc(NC(=O)c2ccc(C3=NCCCN3)cc2)cc1)Nc1ccc(C2=NCCCN2)cc1`, the T/C (dose: 2.5 mg/kg/injection, schedule: Q01DX009 (ip), vehicle: saline with Tween-80) is reported as 113 % of control, the T/C [7] is reported as 168 % of control and the T/C (dose: 5.0 mg/kg/injection, schedule: Q04DX003 (ip), vehicle: saline with Tween-80) is reported as 109 % of control. For the same compound, the T/C (dose: 6.6 mg/kg/injection, schedule: Q01DX009 (ip), vehicle: saline with Tween-80) was 175 % of control, the T/C (dose: 10.0 mg/kg/injection, schedule: Q01DX009 (ip), vehicle: saline with Tween-80) was 233 % of control and 204 % of control and the T/C (dose: 10.0 mg/kg/injection, schedule: Q04DX003 (ip), vehicle: saline with Tween-80) was 109 % of control. For the same compound, the T/C (dose: 15.0 mg/kg/injection, schedule: Q01DX009 (ip), vehicle: saline with Tween-80) was 233 % of control.

For `CCOC(=O)c1cnn2c(SC)ncnc12`, the T/C [1] was 99 % of control, the T/C [2] was 111 % of control and the T/C [8] was 109 % of control. For the same compound, the T/C [3] was 101 % of control, the T/C [9] was 100 % of control and the T/C [10] was 99 % of control. For the same compound, the T/C [4] was 109 % of control.

`CN(C)c1ccc(/C=C/c2cccc(/C=C/c3ccc(N(C)C)cc3)[n+]2[O-])cc1` was tested, and the T/C (dose: 50.0 mg/kg/injection, schedule: Q01DX005 (ip), vehicle: saline with Tween-80) was 91 % of control, the T/C (dose: 100.0 mg/kg/injection, schedule: Q01DX005 (ip), vehicle: saline with Tween-80) was 89 % of control and the T/C (dose: 200.0 mg/kg/injection, schedule: Q01DX005 (ip), vehicle: saline with Tween-80) was 93 % of control.

For `N#CC12CC3CC(CC(C3)C1)C2`, the T/C [7] was 100 % of control and the T/C (dose: 20.0 mg/kg/injection, schedule: Q01DX009 (ip), vehicle: saline with Tween-80) was 88 % of control.

`CCCCOP(=O)(O)CCCC.[Al]` was tested, and the T/C (dose: 12.5 mg/kg/injection, schedule: Q04DX003 (ip), vehicle: saline with Tween-80) was 97 % of control, the T/C [8] was 97 % of control and the T/C [9] was 91 % of control.

With `O=C1NC(=O)C(c2ccc(O)cc2)N1` (centres undefined) the T/C [4] was 100 % of control, the T/C [5] was 109 % of control and the T/C [6] was 118 % of control.

In the case of `CC(=O)OC(C)(C(=O)/C=C/C(C)(C)O)C1C(O)CC2(C)C3CC=C4C(C=C(O)C(=O)C4(C)C)C3(C)C(=O)CC12C` (centres undefined), the T/C (dose: 0.25 mg/kg/injection, schedule: Q01DX010 (ip), vehicle: carboxymethylcellulose (CMC)) is reported as 100 % of control, the T/C (dose: 0.5 mg/kg/injection, schedule: Q01DX010 (ip), vehicle: carboxymethylcellulose (CMC)) is reported as 96 % of control and the T/C (dose: 1.0 mg/kg/injection, schedule: Q01DX010 (ip), vehicle: carboxymethylcellulose (CMC)) is reported as 98 % of control. The T/C (dose: 2.0 mg/kg/injection, schedule: Q01DX010 (ip), vehicle: carboxymethylcellulose (CMC)) was 117 % of control and the T/C (dose: 4.0 mg/kg/injection, schedule: Q01DX010 (ip), vehicle: carboxymethylcellulose (CMC)) was 105 % of control.

With `CC1(C)C(=O)C2(C(=O)O)CCC1C2` (centres undefined) the T/C [10] was 100 % of control, the T/C [4] was 95 % of control and the T/C (dose: 200.0 mg/kg/injection, schedule: Q01DX009 (ip), vehicle: saline with Tween-80) was 95 % of control. The T/C [5] was 109 % of control, the T/C (dose: 400.0 mg/kg/injection, schedule: Q01DX009 (ip), vehicle: saline with Tween-80) was 100 % of control and the T/C [6] was 100 % of control.

For `O=C1CCC(=O)N1CC(O)COc1ccc(Cl)cc1` (centres undefined), the T/C [4] was 100 % of control, the T/C [5] was 95 % of control and the T/C [6] was 100 % of control.
